Test results: US5198418A, “Substituted alkylamides of teicoplanin compounds” (Gruppo Lepetit S.p.A., priority 1987, dated 1993)

How the values were obtained:
[1] = tested on: Staph. epidermidis ATCC 12228; assay: in vitro antibacterial activity, MIC; type: cell-based; conditions: inoculum about 10^4 CFU/ml, 18-24 h at 37° C.
Description: (§1) ISOSENSITEST broth, culture medium (Oxoid) and Todd-Hewitt broth, culture medium (Difco) are used for growing staphylococci and streptococci, respectively. Broth cultures are diluted so that the final inoculum is about 10^4 colony forming units/ml (CFU/ml).

Staph. haemoliticus 602 = assay: in vitro antibacterial activity, MIC; type: cell-based; conditions: inoculum about 10^4 CFU/ml, 18-24 h at 37° C.
Description: as §1

[2] = tested on: Pseudomonas aeruginosa ATCC 10145; assay: in vitro antibacterial activity, MIC; type: cell-based; conditions: inoculum about 10^4 CFU/ml, 18-24 h at 37° C.
Description: as §1

E. coli SKF 12140 = assay: in vitro antibacterial activity, MIC; type: cell-based; conditions: inoculum about 10^4 CFU/ml, 18-24 h at 37° C.
Description: as §1

[3] = tested on: Strepto. pneumoniae UC 41; assay: in vitro antibacterial activity, MIC; type: cell-based; conditions: inoculum about 10^4 CFU/ml, 18-24 h at 37° C.
Description: as §1

[4] = tested on: Strepto. faecalis ATCC 7080; assay: in vitro antibacterial activity, MIC; type: cell-based; conditions: inoculum about 10^4 CFU/ml, 18-24 h at 37° C.
Description: as §1

Strepto. pyogenes C 203 = assay: in vitro antibacterial activity, MIC; type: cell-based; conditions: inoculum about 10^4 CFU/ml, 18-24 h at 37° C.
Description: as §1

[5] = tested on: Proteus vulgaris X 19H ATCC 881; assay: in vitro antibacterial activity, MIC; type: cell-based; conditions: inoculum about 10^4 CFU/ml, 18-24 h at 37° C.
Description: as §1

Staph. aureus Tour = assay: in vitro antibacterial activity, MIC; type: cell-based; conditions: inoculum about 10^4 CFU/ml, 18-24 h at 37° C.
Description: as §1

S. pyogenes C 203 = assay: in vivo activity in mice infected with S. pyogenes

SMILES	MIC [1] [µg/mL]	MIC (Staph. haemoliticus 602) [µg/mL]	MIC [2] [µg/mL]	MIC (E. coli SKF 12140) [µg/mL]	MIC [3] [µg/mL]	MIC [4] [µg/mL]	MIC (Strepto. pyogenes C 203) [µg/mL]	MIC [5] [µg/mL]	MIC (Staph. aureus Tour) [µg/mL]	ED50 (S. pyogenes C 203; route of administration p.o.) [mg/kg]	ED50 (S. pyogenes C 203; route of administration s.c) [mg/kg]
Cl.NC1C(=O)NC2Cc3ccc(c(Cl)c3)Oc3cc4cc(c3O)Oc3ccc(cc3Cl)C(O)C3NC(=O)C(NC(=O)C4NC(=O)C(NC2=O)c2cc(O)cc(c2)Oc2cc1ccc2O)c1ccc(O)c(c1)-c1c(O)cc(O)cc1C(C(=O)NC(CCC(=O)N1CCSCC1)C(=O)N1CCSCC1)NC3=O (centres unmarked) [Compound 22]	0.06	0.12	> 128	> 128	0.12	0.12	0.12	> 128	0.12		
CCCCC(NC(=O)C1NC(=O)C2NC(=O)C(NC(=O)C3NC(=O)C4NC(=O)C(Cc5ccc(c(Cl)c5)Oc5cc3cc(c5O)Oc3ccc(cc3Cl)C2O)NC(=O)C(NC(=O)OC(C)(C)C)c2ccc(O)c(c2)Oc2cc(O)cc4c2)c2ccc(O)c(c2)-c2c(O)cc(O)cc21)C(=O)NCCS (centres unmarked) [Compound 20]										> 300	8.70
